Laboratory results: the supplement of paper PMC12463676, “Small-molecule dissolution of stress granules by redox modulation benefits ALS models” (Nature Chemical Biology, 2025)

Columns and labels:
[1] = compound: NC(=O)CCCCC1CCSS1 [lipoamide]; assay: thermal stability z-score vs DMSO; higher = more thermally stabilized by treatment; details: HeLa, lipoamide concentration 100 µM
Description: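 Cellular thermal proteome profiling in HeLa cells. Cells were treated with 100 µM lipoamide for 1 h, with or without 1 mM arsenate for a further 1 h, then heated to ten temperatures (37-66.3 °C), and soluble protein was quantified by TMT mass spectrometry relative to 0.1% DMSO controls. The thermal stability score (sum of log2 fold changes minus the abundance score) was transformed to a z-score; mean of n = 3 experiments.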

[2] = compound: O=[As]([O-])(O)O.[K+] [potassium arsenate]; assay: as above; details: HeLa; arsenate concentration 1 mM
Description: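 Cellular thermal proteome profiling in HeLa cells treated with 1 mM arsenate for 1 h (DMSO pretreatment), heated to ten temperatures (37-66.3 °C). Soluble protein was quantified by TMT mass spectrometry relative to DMSO controls; the thermal stability score was transformed to a z-score; mean of n = 3 experiments.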

[3] = arsenate co-treatment: 1 mM arsenate 1 h
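Note: each temperature applied for 3 min, abundance score taken as mean log2 fold change at the two lowest temperatures, z-score obtained by mean subtraction and division by SD.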

IGF2BP1 (UniProt Q9NZI8)
UniProt Q9NZI8, sequence (Q9NZI8 whole entry): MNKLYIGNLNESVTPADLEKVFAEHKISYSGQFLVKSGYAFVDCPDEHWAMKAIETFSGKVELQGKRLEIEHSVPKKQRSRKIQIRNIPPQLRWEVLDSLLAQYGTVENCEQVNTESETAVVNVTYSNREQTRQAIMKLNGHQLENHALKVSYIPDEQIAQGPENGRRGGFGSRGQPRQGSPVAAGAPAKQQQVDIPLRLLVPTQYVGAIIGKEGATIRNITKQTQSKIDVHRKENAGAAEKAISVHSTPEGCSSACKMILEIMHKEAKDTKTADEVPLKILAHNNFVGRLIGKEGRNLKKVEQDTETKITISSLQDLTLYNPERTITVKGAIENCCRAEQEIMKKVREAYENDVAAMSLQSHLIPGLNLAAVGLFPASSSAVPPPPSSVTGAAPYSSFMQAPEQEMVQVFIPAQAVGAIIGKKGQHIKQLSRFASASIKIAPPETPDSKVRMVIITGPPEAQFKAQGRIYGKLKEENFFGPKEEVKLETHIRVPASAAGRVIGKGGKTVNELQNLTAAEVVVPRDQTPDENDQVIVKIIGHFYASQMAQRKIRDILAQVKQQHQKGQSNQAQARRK
thermal stability z-score [1, 3]: -0.0135
thermal stability z-score ([1]; arsenate co-treatment: none): 0.286
thermal stability z-score [2]: -0.379

QSER1 (UniProt Q2KHR3)
thermal stability z-score [1, 3]: -0.147
thermal stability z-score ([1]; arsenate co-treatment: none): -0.0194
thermal stability z-score [2]: 0.0737

PRKACA (UniProt P17612)
thermal stability z-score [1, 3]: 0.104
thermal stability z-score ([1]; arsenate co-treatment: none): 0.151
thermal stability z-score [2]: 0.535

L1CAM (UniProt P32004)
thermal stability z-score [1, 3]: 0.0694
thermal stability z-score ([1]; arsenate co-treatment: none): -0.375
thermal stability z-score [2]: -0.0837

PSMC6 (UniProt P62333)
thermal stability z-score [1, 3]: 0.467
thermal stability z-score ([1]; arsenate co-treatment: none): 0.219
thermal stability z-score [2]: -0.23

LPCAT2 (UniProt Q7L5N7)
thermal stability z-score [1, 3]: -0.337
thermal stability z-score ([1]; arsenate co-treatment: none): 0.245
thermal stability z-score [2]: 0.944

EIF3K (UniProt Q9UBQ5)
UniProt Q9UBQ5, sequence (Q9UBQ5 whole entry): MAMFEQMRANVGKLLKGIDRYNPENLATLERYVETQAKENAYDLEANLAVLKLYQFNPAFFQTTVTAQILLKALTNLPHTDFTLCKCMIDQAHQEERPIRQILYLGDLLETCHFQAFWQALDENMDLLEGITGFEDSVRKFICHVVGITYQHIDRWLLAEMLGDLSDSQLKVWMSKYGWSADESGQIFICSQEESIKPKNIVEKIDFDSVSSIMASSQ
thermal stability z-score [1, 3]: -0.353
thermal stability z-score ([1]; arsenate co-treatment: none): 0.0198
thermal stability z-score [2]: 0.00475

ALDH5A1 (UniProt P51649)
thermal stability z-score [1, 3]: 0.0808
thermal stability z-score ([1]; arsenate co-treatment: none): -0.136
thermal stability z-score [2]: 0.302

CDK5RAP3 (UniProt Q96JB5)
UniProt Q96JB5, sequence (Q96JB5 whole entry): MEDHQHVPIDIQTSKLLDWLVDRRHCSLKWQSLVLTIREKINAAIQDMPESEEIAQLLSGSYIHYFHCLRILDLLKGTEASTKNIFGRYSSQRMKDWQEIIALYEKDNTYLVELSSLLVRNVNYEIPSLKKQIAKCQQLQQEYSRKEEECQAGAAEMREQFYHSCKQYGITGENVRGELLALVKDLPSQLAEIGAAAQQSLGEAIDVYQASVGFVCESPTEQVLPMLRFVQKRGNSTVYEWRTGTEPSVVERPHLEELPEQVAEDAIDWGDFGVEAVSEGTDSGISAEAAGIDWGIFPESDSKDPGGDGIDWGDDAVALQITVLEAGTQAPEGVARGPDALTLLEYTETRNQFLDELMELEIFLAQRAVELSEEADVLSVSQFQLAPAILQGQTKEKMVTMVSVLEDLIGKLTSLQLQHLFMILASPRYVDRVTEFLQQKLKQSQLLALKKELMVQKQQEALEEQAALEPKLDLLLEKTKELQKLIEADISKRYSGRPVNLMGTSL
thermal stability z-score [1, 3]: -0.0376
thermal stability z-score ([1]; arsenate co-treatment: none): 0.162
thermal stability z-score [2]: 0.406

HSPH1 (UniProt Q92598)
UniProt Q92598, sequence (Q92598 whole entry): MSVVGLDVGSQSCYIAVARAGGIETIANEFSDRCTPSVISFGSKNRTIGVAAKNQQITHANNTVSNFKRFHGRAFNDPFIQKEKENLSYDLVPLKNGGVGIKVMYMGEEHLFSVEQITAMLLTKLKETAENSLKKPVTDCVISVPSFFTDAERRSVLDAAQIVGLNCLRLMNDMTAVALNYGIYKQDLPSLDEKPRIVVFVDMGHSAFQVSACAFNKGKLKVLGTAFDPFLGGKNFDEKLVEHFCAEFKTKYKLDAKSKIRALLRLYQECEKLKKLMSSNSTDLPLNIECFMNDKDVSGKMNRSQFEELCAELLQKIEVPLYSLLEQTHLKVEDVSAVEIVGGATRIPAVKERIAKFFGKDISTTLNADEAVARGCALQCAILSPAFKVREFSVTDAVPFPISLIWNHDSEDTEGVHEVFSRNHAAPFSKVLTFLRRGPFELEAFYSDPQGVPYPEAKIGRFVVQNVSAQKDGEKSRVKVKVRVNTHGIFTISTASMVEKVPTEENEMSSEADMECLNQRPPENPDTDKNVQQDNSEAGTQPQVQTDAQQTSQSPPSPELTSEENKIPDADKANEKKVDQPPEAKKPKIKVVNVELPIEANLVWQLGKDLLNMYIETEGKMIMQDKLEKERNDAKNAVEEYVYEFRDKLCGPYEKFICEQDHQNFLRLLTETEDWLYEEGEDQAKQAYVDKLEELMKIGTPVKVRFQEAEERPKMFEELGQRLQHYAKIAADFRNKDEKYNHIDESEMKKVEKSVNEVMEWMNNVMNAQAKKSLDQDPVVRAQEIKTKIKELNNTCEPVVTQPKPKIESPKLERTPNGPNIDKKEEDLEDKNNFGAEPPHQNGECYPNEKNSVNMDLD
thermal stability z-score [1, 3]: -0.0648
thermal stability z-score ([1]; arsenate co-treatment: none): -0.0435
thermal stability z-score [2]: 0.196

PER1 (UniProt O15534)
thermal stability z-score [1, 3]: 0.107
thermal stability z-score ([1]; arsenate co-treatment: none): -0.119
thermal stability z-score [2]: -0.023

GNB4 (UniProt Q9HAV0)
thermal stability z-score [1, 3]: 0.329
thermal stability z-score ([1]; arsenate co-treatment: none): 0.753
thermal stability z-score [2]: -0.65

LATS1 (UniProt O95835)
thermal stability z-score [1, 3]: -0.183
thermal stability z-score ([1]; arsenate co-treatment: none): -0.189
thermal stability z-score [2]: -0.0262

PIP4K2A (UniProt P48426)
thermal stability z-score [1, 3]: 0.195
thermal stability z-score ([1]; arsenate co-treatment: none): 0.103
thermal stability z-score [2]: -0.102

CALU (UniProt O43852)
thermal stability z-score [1, 3]: 0.0232
thermal stability z-score ([1]; arsenate co-treatment: none): 0.235
thermal stability z-score [2]: 0.255

FKBP8 (UniProt Q14318)
thermal stability z-score [1, 3]: -1.33
thermal stability z-score ([1]; arsenate co-treatment: none): -0.861
thermal stability z-score [2]: 1.05

EEF1A1 (UniProt P68104)
thermal stability z-score [1, 3]: -0.0408
thermal stability z-score ([1]; arsenate co-treatment: none): 0.166
thermal stability z-score [2]: 0.2

DNAJC30 (UniProt Q96LL9)
thermal stability z-score [1, 3]: -0.154
thermal stability z-score ([1]; arsenate co-treatment: none): -0.0708
thermal stability z-score [2]: 0.0918

PPM1F (UniProt P49593)
thermal stability z-score [1, 3]: -0.361
thermal stability z-score ([1]; arsenate co-treatment: none): -0.757
thermal stability z-score [2]: -0.617

SAT2 (UniProt Q96F10)
thermal stability z-score [1, 3]: 0.538
thermal stability z-score ([1]; arsenate co-treatment: none): 0.492
thermal stability z-score [2]: 0.614

LONP2 (UniProt Q86WA8)
thermal stability z-score [1, 3]: -0.55
thermal stability z-score ([1]; arsenate co-treatment: none): -0.13
thermal stability z-score [2]: 0.393

TBCK (UniProt Q8TEA7)
thermal stability z-score [1, 3]: 0.135
thermal stability z-score ([1]; arsenate co-treatment: none): 0.0192
thermal stability z-score [2]: -0.192

MAP4K4 (UniProt O95819)
thermal stability z-score [1, 3]: -0.599
thermal stability z-score ([1]; arsenate co-treatment: none): -0.0959
thermal stability z-score [2]: 0.303

RPRD1A (UniProt Q96P16)
UniProt Q96P16, sequence (Q96P16 whole entry): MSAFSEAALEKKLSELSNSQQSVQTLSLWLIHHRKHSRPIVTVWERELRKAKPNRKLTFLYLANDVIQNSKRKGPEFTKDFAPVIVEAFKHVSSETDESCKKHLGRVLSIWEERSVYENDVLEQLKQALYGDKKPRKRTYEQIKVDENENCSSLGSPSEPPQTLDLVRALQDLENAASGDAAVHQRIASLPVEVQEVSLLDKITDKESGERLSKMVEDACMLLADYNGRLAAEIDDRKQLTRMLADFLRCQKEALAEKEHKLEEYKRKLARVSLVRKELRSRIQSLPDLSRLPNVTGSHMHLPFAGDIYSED
thermal stability z-score [1, 3]: -0.123
thermal stability z-score ([1]; arsenate co-treatment: none): -0.0762
thermal stability z-score [2]: -0.037

BRI3BP (UniProt Q8WY22)
thermal stability z-score [1, 3]: 0.227
thermal stability z-score ([1]; arsenate co-treatment: none): 0.0879
thermal stability z-score [2]: -0.544

PKN3 (UniProt Q6P5Z2)
thermal stability z-score [1, 3]: -0.237
thermal stability z-score ([1]; arsenate co-treatment: none): 0.334
thermal stability z-score [2]: 0.231

EPRS (UniProt P07814)
thermal stability z-score [1, 3]: -0.648
thermal stability z-score ([1]; arsenate co-treatment: none): -0.436
thermal stability z-score [2]: 0.432

COMMD10 (UniProt Q9Y6G5)
thermal stability z-score [1, 3]: 0.107
thermal stability z-score ([1]; arsenate co-treatment: none): 0.18
thermal stability z-score [2]: 0.307

SLC37A4 (UniProt O43826)
thermal stability z-score [1, 3]: 1.26
thermal stability z-score ([1]; arsenate co-treatment: none): -0.205
thermal stability z-score [2]: -0.212

VPS41 (UniProt P49754)
thermal stability z-score [1, 3]: -0.0442
thermal stability z-score ([1]; arsenate co-treatment: none): -0.511
thermal stability z-score [2]: -0.161

NAP1L4 (UniProt Q99733)
thermal stability z-score [1, 3]: -0.0111
thermal stability z-score ([1]; arsenate co-treatment: none): 0.113
thermal stability z-score [2]: -0.384

HOMER3 (UniProt Q9NSC5)
thermal stability z-score [1, 3]: 0.5
thermal stability z-score ([1]; arsenate co-treatment: none): 0.526
thermal stability z-score [2]: 0.462

IQGAP2 (UniProt Q13576)
thermal stability z-score [1, 3]: -0.121
thermal stability z-score ([1]; arsenate co-treatment: none): -0.159
thermal stability z-score [2]: -0.209

STX18 (UniProt Q9P2W9)
thermal stability z-score [1, 3]: 0.00945
thermal stability z-score ([1]; arsenate co-treatment: none): 0.0404
thermal stability z-score [2]: 0.066

GLRX5 (UniProt Q86SX6)
thermal stability z-score [1, 3]: 1.13
thermal stability z-score ([1]; arsenate co-treatment: none): -0.225
thermal stability z-score [2]: -0.462

TFDP1 (UniProt Q14186)
thermal stability z-score [1, 3]: -0.00506
thermal stability z-score ([1]; arsenate co-treatment: none): 0.0652
thermal stability z-score [2]: -0.0388

ARFGAP3 (UniProt Q9NP61)
thermal stability z-score [1, 3]: 0.116
thermal stability z-score ([1]; arsenate co-treatment: none): 0.294
thermal stability z-score [2]: 0.0267

C9ORF78 (UniProt Q9NZ63)
thermal stability z-score [1, 3]: 0.058
thermal stability z-score ([1]; arsenate co-treatment: none): 0.278
thermal stability z-score [2]: 0.106

RSRC2 (UniProt Q7L4I2)
thermal stability z-score [1, 3]: 0.668
thermal stability z-score ([1]; arsenate co-treatment: none): 0.164
thermal stability z-score [2]: 1.03

DNPH1 (UniProt O43598)
thermal stability z-score [1, 3]: 0.0889
thermal stability z-score ([1]; arsenate co-treatment: none): -0.11
thermal stability z-score [2]: -0.0373

FAT1 (UniProt Q14517)
thermal stability z-score [1, 3]: -1.6
thermal stability z-score ([1]; arsenate co-treatment: none): -1.48
thermal stability z-score [2]: 0.0899

SLC44A2 (UniProt Q8IWA5)
thermal stability z-score [1, 3]: -0.0733
thermal stability z-score ([1]; arsenate co-treatment: none): -0.171
thermal stability z-score [2]: -0.517

TFB2M (UniProt Q9H5Q4)
thermal stability z-score [1, 3]: -0.3
thermal stability z-score ([1]; arsenate co-treatment: none): -0.261
thermal stability z-score [2]: 0.215

LPGAT1 (UniProt Q92604)
UniProt Q92604, sequence (Q92604 whole entry): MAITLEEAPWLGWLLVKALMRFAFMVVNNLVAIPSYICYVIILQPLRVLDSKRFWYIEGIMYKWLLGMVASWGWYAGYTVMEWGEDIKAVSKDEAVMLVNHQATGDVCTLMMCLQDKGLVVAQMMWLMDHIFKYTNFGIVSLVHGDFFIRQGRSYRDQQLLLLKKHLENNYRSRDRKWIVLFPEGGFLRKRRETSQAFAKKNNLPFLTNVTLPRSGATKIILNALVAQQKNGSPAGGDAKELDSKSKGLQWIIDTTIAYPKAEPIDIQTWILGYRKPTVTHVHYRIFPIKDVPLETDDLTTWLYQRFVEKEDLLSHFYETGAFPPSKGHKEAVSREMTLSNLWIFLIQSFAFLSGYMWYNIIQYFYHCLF
thermal stability z-score [1, 3]: -0.218
thermal stability z-score ([1]; arsenate co-treatment: none): 0.0487
thermal stability z-score [2]: 0.251

PTPN6 (UniProt P29350)
UniProt P29350, sequence (P29350 whole entry): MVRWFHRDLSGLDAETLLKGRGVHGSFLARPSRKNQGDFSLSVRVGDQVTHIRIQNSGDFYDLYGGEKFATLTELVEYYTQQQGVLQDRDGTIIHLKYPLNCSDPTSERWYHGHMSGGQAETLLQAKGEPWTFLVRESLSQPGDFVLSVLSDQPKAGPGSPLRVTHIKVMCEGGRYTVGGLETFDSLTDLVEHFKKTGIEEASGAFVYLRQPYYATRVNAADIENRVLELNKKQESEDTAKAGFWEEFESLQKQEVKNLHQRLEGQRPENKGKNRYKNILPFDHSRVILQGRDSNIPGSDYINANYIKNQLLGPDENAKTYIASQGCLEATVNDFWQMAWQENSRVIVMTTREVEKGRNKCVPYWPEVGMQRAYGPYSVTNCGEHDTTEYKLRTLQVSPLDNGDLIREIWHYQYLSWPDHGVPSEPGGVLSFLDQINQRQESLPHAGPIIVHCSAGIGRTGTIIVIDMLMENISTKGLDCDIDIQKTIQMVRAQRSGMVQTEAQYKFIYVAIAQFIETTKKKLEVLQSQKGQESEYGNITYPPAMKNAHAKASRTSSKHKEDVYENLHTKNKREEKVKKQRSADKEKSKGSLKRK
thermal stability z-score [1, 3]: -0.0229
thermal stability z-score ([1]; arsenate co-treatment: none): 0.0958
thermal stability z-score [2]: -0.0221

IFIT3 (UniProt O14879)
UniProt O14879, sequence (O14879 whole entry): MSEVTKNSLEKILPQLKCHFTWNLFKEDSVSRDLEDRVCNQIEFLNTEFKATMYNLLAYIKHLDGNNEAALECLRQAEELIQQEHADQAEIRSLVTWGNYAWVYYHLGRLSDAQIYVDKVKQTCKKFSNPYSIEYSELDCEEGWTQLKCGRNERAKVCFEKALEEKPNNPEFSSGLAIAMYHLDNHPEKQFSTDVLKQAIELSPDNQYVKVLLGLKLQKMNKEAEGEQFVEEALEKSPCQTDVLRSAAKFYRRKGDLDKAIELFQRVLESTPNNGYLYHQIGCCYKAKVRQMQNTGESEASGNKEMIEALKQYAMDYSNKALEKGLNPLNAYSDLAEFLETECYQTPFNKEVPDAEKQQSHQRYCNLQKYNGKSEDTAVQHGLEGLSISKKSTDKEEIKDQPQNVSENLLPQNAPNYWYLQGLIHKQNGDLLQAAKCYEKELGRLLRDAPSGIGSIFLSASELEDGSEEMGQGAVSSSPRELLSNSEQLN
thermal stability z-score [1, 3]: 0.00563
thermal stability z-score ([1]; arsenate co-treatment: none): -0.0242
thermal stability z-score [2]: -0.0781

AHNAK (UniProt Q09666)
thermal stability z-score [1, 3]: 1.35
thermal stability z-score ([1]; arsenate co-treatment: none): 1.69
thermal stability z-score [2]: 2.03

METTL10 (UniProt Q5JPI9)
thermal stability z-score [1, 3]: -0.0093
thermal stability z-score ([1]; arsenate co-treatment: none): 0.0402
thermal stability z-score [2]: 0.206

MYL12A|MYL12B
thermal stability z-score [1, 3]: 0.352
thermal stability z-score ([1]; arsenate co-treatment: none): 0.436
thermal stability z-score [2]: -0.0176

GTPBP4 (UniProt Q9BZE4)
thermal stability z-score [1, 3]: -0.6
thermal stability z-score ([1]; arsenate co-treatment: none): 0.00531
thermal stability z-score [2]: -1

IPO9 (UniProt Q96P70)
thermal stability z-score [1, 3]: 0.178
thermal stability z-score ([1]; arsenate co-treatment: none): -0.179
thermal stability z-score [2]: 0.165

KIF2A (UniProt O00139)
thermal stability z-score [1, 3]: -0.584
thermal stability z-score ([1]; arsenate co-treatment: none): -0.0403
thermal stability z-score [2]: -0.0587

TXNDC11 (UniProt Q6PKC3)
UniProt Q6PKC3, sequence (Q6PKC3 whole entry): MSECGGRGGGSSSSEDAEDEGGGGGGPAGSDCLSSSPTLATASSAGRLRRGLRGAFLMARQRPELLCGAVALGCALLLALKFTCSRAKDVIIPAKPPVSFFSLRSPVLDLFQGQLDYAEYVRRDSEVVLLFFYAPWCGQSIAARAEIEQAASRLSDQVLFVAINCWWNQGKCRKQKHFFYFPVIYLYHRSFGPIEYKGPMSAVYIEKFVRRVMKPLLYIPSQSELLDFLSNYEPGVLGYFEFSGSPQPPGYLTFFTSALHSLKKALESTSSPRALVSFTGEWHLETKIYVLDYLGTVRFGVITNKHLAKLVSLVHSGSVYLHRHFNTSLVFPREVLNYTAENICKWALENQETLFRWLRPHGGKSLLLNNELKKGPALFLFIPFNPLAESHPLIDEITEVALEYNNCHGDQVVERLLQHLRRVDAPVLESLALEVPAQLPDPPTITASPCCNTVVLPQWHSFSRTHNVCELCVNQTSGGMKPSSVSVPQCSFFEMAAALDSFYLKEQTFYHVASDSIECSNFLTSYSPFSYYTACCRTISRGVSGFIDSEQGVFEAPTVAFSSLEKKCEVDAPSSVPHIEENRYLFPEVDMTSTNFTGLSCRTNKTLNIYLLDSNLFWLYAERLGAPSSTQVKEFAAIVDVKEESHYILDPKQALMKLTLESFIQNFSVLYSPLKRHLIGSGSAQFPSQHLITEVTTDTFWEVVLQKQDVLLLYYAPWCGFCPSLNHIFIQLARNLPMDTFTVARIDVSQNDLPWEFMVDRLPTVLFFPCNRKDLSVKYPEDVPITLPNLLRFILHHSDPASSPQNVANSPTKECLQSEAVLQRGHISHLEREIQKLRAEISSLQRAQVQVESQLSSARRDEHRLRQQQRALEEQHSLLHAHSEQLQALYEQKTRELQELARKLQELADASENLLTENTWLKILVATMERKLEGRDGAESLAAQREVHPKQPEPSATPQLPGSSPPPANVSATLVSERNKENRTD
thermal stability z-score [1, 3]: -0.797
thermal stability z-score ([1]; arsenate co-treatment: none): -0.984
thermal stability z-score [2]: 0.425

GNB1 (UniProt P62873)
thermal stability z-score [1, 3]: 0.979
thermal stability z-score ([1]; arsenate co-treatment: none): 0.0629
thermal stability z-score [2]: -0.776

NOMO1 (UniProt Q15155)
thermal stability z-score [1, 3]: -0.893
thermal stability z-score ([1]; arsenate co-treatment: none): -1.83
thermal stability z-score [2]: 0.353
